Converted amounts (≈) assume the structure as drawn. Like-named read-outs stand apart in the source and are kept apart here. Marks after values point to notes of the source that are not given here.
Key:
[1] = system: Staphylococcus aureus ATCC 25923; assay: Antibacterial MIC, twofold serial dilution in 96-well plates; type: cell-based; conditions: S. aureus; for MIC: Staphylococcus aureus, ATCC25923
Rhizoctonia solani = assay: Antifungal MIC, twofold serial dilution in 96-well plates; type: cell-based; conditions: R. solani
[2] = system: Fusarium graminearum schw.; assay: microbe, parasite or virus in culture; type: cell-based; conditions: read-out: Antifungal MIC
Botrytis cinerea = assay: Antifungal MIC, twofold serial dilution in 96-well plates; type: cell-based; conditions: B. cinerea
[3] = system: Fusarium oxysporum f.sp. niveum; assay: as above; type: cell-based
Septoria nodorum Berk. = assay: as above; type: cell-based; conditions: Parastagonospora nodorum; S. nodorum
[4] = system: Escherichia coli ATCC 25922; assay: Antibacterial MIC, twofold serial dilution in 96-well plates; type: cell-based; conditions: ATCC25922, E. coli
Streptococcus suis SC19 = assay: as above; type: cell-based; conditions: S. suis; for MIC: Streptococcus suis, SC19
[5] = system: Verticillium dahlia kieb.; assay: Antifungal MIC, twofold serial dilution in 96-well plates; type: cell-based; conditions: V. dahlia
22Rv1 cells = assay: Cytotoxicity / antiproliferative MTT assay; type: cell-based, human; conditions: read-out: Cytotoxic IC50
Procedure: (§1) Cell viability was analyzed by 3-(4,5)-[…] (MTT) assay as previously described. In brief, cells were seeded in a 96-well plate at a density of 5 × 10^3 per well overnight and treated with compounds for demand time. OD570 values were detected using a Hybrid Multi-Mode Reader (Synergy H1, BioTek, Santa Clara, CA, USA). The experiment was independently repeated three times.

[6] = system: Botrytis cinerea, Verticillium dahlia kieb., Fusarium graminearum schw., Fusarium oxysporum f.sp. niveum, Rhizoctonia solani, Septoria nodorum Berk.; type: cell-based; conditions: range over B. cinerea, V. dahlia, R. solani, S. nodorum
PC-3 cells [7] = assay: Cytotoxicity / antiproliferative MTT assay; type: cell-based; conditions: Homo sapiens, PC-3, PC-3 (androgen receptor negative); read-out: Cytotoxic IC50
Procedure: as §1

[8] = system: Erysipelothrix rhusiopathiae WH13013; assay: Antibacterial MIC, twofold serial dilution in 96-well plates; type: cell-based; conditions: E. rhusiopathiae; for MIC: Erysipelothrix rhusiopathiae, WH13013
PC-3 cells [9] = assay: Apoptosis assay, annexin V-FITC/PI flow cytometry; type: cell-based, human; conditions: 48 h
Excerpt: (§2) Then, cells were collected and stained with annexin V-FITC and PI solution, following the manufacturer’s manual (BMS500FI-300, Thermo Fisher Scientific, Waltham, MA, USA). Apoptotic rates and cell cycle distribution of PC-3 cells were examined and analyzed by flow cytometer (NovoCyte, Agilent, Santa Clara, CA, USA). Each experiment was repeated three times independently.

[10] = system: HepG2, A549, Hela, WPMY-1, MC3T3-E1 cells; assay: Antiproliferative MTT assay, summary over other cells; type: cell-based; conditions: range over HepG2, A549, Hela, read-out: IC50 values against other cells
Procedure: as §1

PC-3 cells [11] = assay: Cell cycle distribution, flow cytometry; type: cell-based, human; conditions: 48 h
Excerpt: as §2

PC-3 cells [12] = assay: Plate clone formation assay; type: cell-based, human; conditions: 0.16, 0.32 and 0.64 μM; two weeks
Procedure: The cell clone colony formation was observed after two weeks of treatment. Cells were fixed with 4% formaldehyde for 30 min and washed with PBS buffer, then stained with crystal violet stain solution for 30 min. The dye solution was removed and washed the cells with PBS buffer again. Cell colonies were recorded and analyzed by the colony count analysis system (GelCount, Oxford Optronix, Oxford, UK). The experiment was repeated three times independently.

WPMY-1 cells = assay: Cytotoxicity / antiproliferative MTT assay; type: cell-based; conditions: read-out: Cytotoxic IC50
Procedure: as §1

Hela cells = assay: Cytotoxicity / antiproliferative MTT assay; type: cell-based; conditions: Homo sapiens, read-out: Cytotoxic IC50
Procedure: as §1

[13] = Cytotoxicity / antiproliferative MTT assay; type: cell-based; conditions: human, WPMY-1 cells, read-out: Cytotoxic IC50
Procedure: as §1

HepG2 cells = assay: Cytotoxicity / antiproliferative MTT assay; type: cell-based; conditions: read-out: Cytotoxic IC50
Procedure: as §1

A549 cells = assay: Cytotoxicity / antiproliferative MTT assay; type: cell-based; conditions: Homo sapiens, read-out: Cytotoxic IC50
Procedure: as §1

human CCR5 receptor = target: human CCR5 receptor; set-up: method as in PMID 15217290; conditions: read-out: IC50, inhibition of binding with human CCR5 receptor; cited from earlier work
[14] = Homo sapiens, 22Rv1, 22Rv1 (androgen receptor positive)

With `O=C1NC(=O)C(Cl)=C1Cl` [Compound 3, 3,4-dichloro-1H-pyrrole-2,5-dione] the MIC [1] was 100 µg/mL (≈ 603 µM), the MIC (Rhizoctonia solani) was 50 µg/mL (≈ 301 µM) and the MIC [2] was 50 µg/mL (≈ 301 µM). The MIC (Botrytis cinerea) was 25 µg/mL (≈ 151 µM), the MIC [3] was 50 µg/mL (≈ 301 µM) and the MIC (Septoria nodorum Berk.) was 25 µg/mL (≈ 151 µM). It also gave an MIC [4] greater than 100 µg/mL, an MIC (Streptococcus suis SC19) of 100 µg/mL (≈ 603 µM) and an MIC [5] of 25 µg/mL (≈ 151 µM). The IC50 (22Rv1 cells; [14]) was 8.35 µM, the “MIC values against six fungi” value [6] was 25 to 50 µg/mL and the IC50 (PC-3 cells [7]) was 9.6 µM. For the same compound, the melting point was 173 to 175 °C and the MIC [8] was greater than 100 µg/mL.
In the case of `CC=C(C)C(OC(C)=O)C(C)C1=CC(=O)C2=C(OC3(C)CCC4OC(C(C)(C)O)CCC4(C)C3C2)C1=O` (stereo not drawn) [Compound 4, stemphone C], the “Q3-1 quadrant, cells” value (PC-3 cells [9]; PC-3, 2.5 μM) is reported as 3.29%, the “Q3-2 quadrant (late apoptosis), cells” value (PC-3 cells [9]; PC-3, 2.5 μM) is reported as 1.02% and the “Q3-3 quadrant, cells” value (PC-3 cells [9]; PC-3, 2.5 μM) is reported as 94.52%. For the same compound, the “Q3-4 quadrant (early apoptosis), cells” value (PC-3 cells [9]; PC-3, 2.5 μM) was 1.17%, the “Q3-1 quadrant, cells” value (PC-3 cells [9]; PC-3, 5.0 μM) was 4.69% and the “Q3-2 quadrant (late apoptosis), cells” value (PC-3 cells [9]; PC-3, 5.0 μM) was 4.89%. For the same compound, the “Q3-3 quadrant, cells” value (PC-3 cells [9]; PC-3, 5.0 μM) was 83.56%, the “Q3-4 quadrant (early apoptosis), cells” value (PC-3 cells [9]; PC-3, 5.0 μM) was 6.86% and the “Q3-1 quadrant, cells” value (PC-3 cells [9]; PC-3, 10.0 μM) was 14.56%. For the same compound, the “Q3-2 quadrant (late apoptosis), cells” value (PC-3 cells [9]; PC-3, 10.0 μM) was 36.84%, the “Q3-3 quadrant, cells” value (PC-3 cells [9]; PC-3, 10.0 μM) was 33.95% and the “Q3-4 quadrant (early apoptosis), cells” value (PC-3 cells [9]; PC-3, 10.0 μM) was 14.64%. For the same compound, the MIC [1] was greater than 100 µg/mL, the MIC (Rhizoctonia solani) was greater than 100 µg/mL and the MIC [2] was greater than 100 µg/mL. It also gave an MIC (Botrytis cinerea) greater than 100 µg/mL, an IC50 [10] of 3.63 to 11.7 µM and an MIC [3] greater than 100 µg/mL. For the same compound, the “Freq S” value (PC-3 cells [11]; PC-3, 10.0 μM) was 59.14%, the “Formation of clonal colonies of PC-3 cells” value (PC-3 cells [12]) was “significantly inhibited the formation of clonal colonies of PC-3 cells” and the MIC (Septoria nodorum Berk.) was 50 µg/mL (≈ 97.2 µM). The MIC [4] was greater than 100 µg/mL, the MIC (Streptococcus suis SC19) was 6.25 µg/mL (≈ 12.1 µM) and the MIC [5] was greater than 100 µg/mL. For the same compound, the IC50 (22Rv1 cells; 22Rv1 (androgen receptor positive)) was 5.81 µM, the IC50 (22Rv1 cells; [14]) was less than 10 µM and the IC50 (WPMY-1 cells) was 5.53 µM. It also gave an IC50 (Hela cells) of 11.5 µM, an IC50 [13] of less than 10 µM and an IC50 (HepG2 cells; HepG2) of 7.11 µM. For the same compound, the IC50 (HepG2 cells; Homo sapiens, HepG2, HepG2) was less than 10 µM, the IC50 (A549 cells) was 11.7 µM and the MIC [8] was 1.56 µg/mL (≈ 3.03 µM).
Work on `C[C@@H]1C[C@@H]([C@H](O)CC2CC(=O)NC(=O)C2)C(=O)[C@@H](C)C1` [Cycloheximide, reference compound] yielded an MIC (Rhizoctonia solani) of 100 µg/mL (≈ 355 µM), an MIC [2] of 12.5 µg/mL (≈ 44.4 µM) and an MIC (Botrytis cinerea) of 12.5 µg/mL (≈ 44.4 µM). It also gave an MIC [3] greater than 100 µg/mL, an MIC (Septoria nodorum Berk.) of 12.5 µg/mL (≈ 44.4 µM) and an MIC [5] of 12.5 µg/mL (≈ 44.4 µM).
In the case of `CC(=O)O[C@@]12CO[C@@H]1C[C@H](O)[C@@]1(C)C(=O)[C@H](O)C3=C(C)[C@@H](OC(=O)[C@H](O)[C@@H](NC(=O)OC(C)(C)C)c4ccccc4)C[C@@](O)([C@@H](OC(=O)c4ccccc4)[C@H]21)C3(C)C` [Docetaxel, reference compound], the “Q3-1 quadrant, cells” value (PC-3 cells [9]; PC-3, 1.0 μM) is reported as 5.87%, the “Q3-2 quadrant (late apoptosis), cells” value (PC-3 cells [9]; PC-3, 1.0 μM) is reported as 1.68% and the “Q3-3 quadrant, cells” value (PC-3 cells [9]; PC-3, 1.0 μM) is reported as 89.89%. For the same compound, the “Q3-4 quadrant (early apoptosis), cells” value (PC-3 cells [9]; PC-3, 1.0 μM) was 2.57%, the “Freq G2 (G2/M)” value (PC-3 cells [11]; PC-3, 1.0 μM) was 71.23% and the IC50 (22Rv1 cells; [14]) was 0.03 µM. For the same compound, the IC50 [13] was 0.51 µM, the IC50 (PC-3 cells [7]) was 0.12 µM and the IC50 (HepG2 cells; Homo sapiens, HepG2, HepG2) was 179 µM. The IC50 (A549 cells) was 29.9 µM.
In the case of `CC(C)=CCC[C@H](C)[C@H]1CC[C@]2(C)C[C@H]3[C@H](C(=O)C[C@@]3(C)O)/C(C=O)=C\C[C@@H]12` [Ophiobolin C], the IC50 (human CCR5 receptor) is listed as 40 µM.
`[H]/N=C(/N)N[C@H]1[C@H](O)[C@@H](O)[C@H](O[C@@H]2O[C@@H](C)[C@](O)(C=O)[C@H]2O[C@@H]2O[C@@H](CO)[C@H](O)[C@@H](O)[C@@H]2NC)[C@@H](N/C(N)=N\[H])[C@@H]1O` [Streptomycin, reference compound] gave an MIC [4] of 50 µg/mL (≈ 86 µM).
For Penicillin [reference compound], the “Antibacterial MIC” value [1] was 6.25 ^b μg/mL, the “Antibacterial MIC” value (Streptococcus suis SC19) was 1.56 ^b μg/mL and the “Antibacterial MIC” value [8] was 6.25^b μg/mL. The “Antibacterial MIC” value ([8]; listed as penicillin) was 6.25 µg/mL.

— publication PMC9866852, “New Chlorinated Metabolites and Antiproliferative Polyketone from the Mangrove Sediments-Derived Fungus Mollisia sp. SCSIO41409” (Marine Drugs, 2022)
